PubChem BioAssay AID1963972 (Molecular Pharmacology Branch, DTP, NCI, 2024)

System: 945468-187-T-J2-PDC spheroids viability
Test: Anticancer human tumor 945468-187-T-J2-PDC patient-derived rectal carcinoma cell line growth inhibition [PI3K]
Settings: spheroids with HUVEC and MSC; for IC50: curve of first compound; for viability, T/C: stronger effect = lower value
In short: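 Multi-cell spheroids combine tumor cells with HUVEC and human MSCs, treated with targeted agents alone or with inavolisib, alpelisib, duvelisib or copanlisib. Concentrations fall in half-log steps from at or near clinical Cmax, or from 10 microM where Cmax is unknown; viability read-out.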
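Further: spheroids exposed to compounds for seven days before reading.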

- IC50 (second compound 0.0316 µM): 2650 nM
- IC50 (second compound 0.1 µM): 2140 nM
- IC50 (second compound 0.316 µM): > 10000 nM
- IC50 (second compound 1 µM): > 10000 nM
- IC50 (second compound 3.16 µM): 1980 nM
- IC50 (second compound 10 µM): 2320 nM
Compound: CC1(C)CCC(Nc2ncc(C(F)(F)F)c(-c3c[nH]c4c(P(C)(C)=O)c(C#N)ccc34)n2)CN1 (configuration not stated) + Cc1nc(NC(=O)N2CCCC2C(N)=O)sc1-c1ccnc(C(C)(C)C(F)(F)F)c1
- viability, T/C (second compound 0.0316 µM, first compound 0.0316 µM): 95.8%
- viability, T/C (second compound 0.0316 µM, first compound 0.1 µM): 104%
- viability, T/C (second compound 0.0316 µM, first compound 0.316 µM): 78.4%
- viability, T/C (second compound 0.0316 µM, first compound 1 µM): 62.9%
- viability, T/C (second compound 0.0316 µM, first compound 3.16 µM): 47%
- viability, T/C (second compound 0.0316 µM, first compound 10 µM): 45.3%
- viability, T/C (second compound 0.1 µM, first compound 0.0316 µM): 87%
- viability, T/C (second compound 0.1 µM, first compound 0.1 µM): 85.4%
- viability, T/C (second compound 0.1 µM, first compound 0.316 µM): 93.2%
- viability, T/C (second compound 0.1 µM, first compound 1 µM): 55.2%
- viability, T/C (second compound 0.1 µM, first compound 3.16 µM): 53.1%
- viability, T/C (second compound 0.1 µM, first compound 10 µM): 41.6%
- viability, T/C (second compound 0.316 µM, first compound 0.0316 µM): 87.8%
- viability, T/C (second compound 0.316 µM, first compound 0.1 µM): 130%
- viability, T/C (second compound 0.316 µM, first compound 0.316 µM): 80.3%
- viability, T/C (second compound 0.316 µM, first compound 1 µM): 59.2%
- viability, T/C (second compound 0.316 µM, first compound 3.16 µM): 48.1%
- viability, T/C (second compound 0.316 µM, first compound 10 µM): 45.5%
- viability, T/C (second compound 1 µM, first compound 0.0316 µM): 89.8%
- viability, T/C (second compound 1 µM, first compound 0.1 µM): 99.3%
- viability, T/C (second compound 1 µM, first compound 0.316 µM): 91.4%
- viability, T/C (second compound 1 µM, first compound 1 µM): 53.8%
- viability, T/C (second compound 1 µM, first compound 3.16 µM): 48.5%
- viability, T/C (second compound 1 µM, first compound 10 µM): 55.3%
- viability, T/C (second compound 3.16 µM, first compound 0.0316 µM): 99.8%
- viability, T/C (second compound 3.16 µM, first compound 0.1 µM): 106%
- viability, T/C (second compound 3.16 µM, first compound 0.316 µM): 73.7%
- viability, T/C (second compound 3.16 µM, first compound 1 µM): 57%
- viability, T/C (second compound 3.16 µM, first compound 3.16 µM): 50.1%
- viability, T/C (second compound 3.16 µM, first compound 10 µM): 43.1%
- viability, T/C (second compound 10 µM, first compound 0.0316 µM): 81.8%
- viability, T/C (second compound 10 µM, first compound 0.1 µM): 77.5%
- viability, T/C (second compound 10 µM, first compound 0.316 µM): 48.9%
- viability, T/C (second compound 10 µM, first compound 1 µM): 53.7%
- viability, T/C (second compound 10 µM, first compound 3.16 µM): 60.2%
- viability, T/C (second compound 10 µM, first compound 10 µM): 39.4%
